According to US20240043435A1, “TYK-2 INHIBITOR” (BEIGENE, LTD., priority 2020, published 2024):

Columns and labels:
[1] = biological target: T1, TYK2-JH2 (aa 575-869, in-house) protein (Homo sapiens, UniProt P29597); assay: TYK2-JH2 biochemical assay (HTRF probe displacement); format: binding; conditions: Biochemical assay; read-out: TYK2-JH2 IC50
T1 construct: TYK2-JH2 (aa 575-869, in-house) protein; made in house
How it was run: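 HTRF probe-displacement format: compound dilutions (10 points, 5-fold, from 500 uM in DMSO at 500×) were combined with 0.2 nM TYK2-JH2 protein for 0.5 h at room temperature in HEPES pH 7.5 buffer with MgCl2, BSA, DTT and Brij-35. Percent inhibition came from the 615/665 nm fluorescence ratio, fitted to a four-parameter logistic for IC50.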

[2] = tested on: JAK2, TYK2/p-STAT4 (Tyr693) activated by IL-12 in NK-92 cell line; assay: IL-12-JAK2, TYK2/p-STAT4 (Tyr693) inhibition IC50 cellular assay; format: cell-based; conditions: for Selectivity fold (TYK2/JAK2): Cellular assay, pSTAT5/GM-CSF IC50 vs pSTAT4/IL-12 IC50; for IC50: NK92, Cellular assay, read-out: pSTAT4/IL-12 IC50
How it was run: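 p-STAT4 (Tyr693) in lysates was measured by AlphaLISA SureFire Ultra after a 30 min IL-12 challenge (40 ng/ml final) at 37° C. Overnight-starved, IL-2-free NK-92 cells had been pretreated 1 h with compound at 10000 to 0.61 nM (4-fold, 8 points). IC50 values came from four-parameter logistic fitting.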

[3] = tested on: pSTAT5/GM-CSF; assay: pSTAT5/GM-CSF cellular assay (JAK2 selectivity); format: cell-based

T1 sequence (P29597 575-869): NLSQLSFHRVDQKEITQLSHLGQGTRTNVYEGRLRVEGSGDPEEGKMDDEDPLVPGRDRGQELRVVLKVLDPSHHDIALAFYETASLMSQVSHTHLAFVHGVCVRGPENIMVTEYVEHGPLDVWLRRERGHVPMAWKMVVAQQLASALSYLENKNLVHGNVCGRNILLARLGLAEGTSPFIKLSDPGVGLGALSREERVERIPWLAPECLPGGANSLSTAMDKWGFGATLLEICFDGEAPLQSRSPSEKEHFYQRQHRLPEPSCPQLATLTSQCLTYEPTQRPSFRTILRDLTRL

Structure (SMILES) | IC50 [1] | IC50 [2] | IC50 [3] | Selectivity fold (TYK2/JAK2) [2]
COCc1cc(Nc2cc(NC(C)=O)ncc2-c2ccc(C(C)(C)O)cn2)nc(S(C)(=O)=O)c1 [Example H13, N-(5-(2-hydroxypropan-2-yl)-4′-((4-(methoxymethyl)-6-(methylsulfonyl)pyridin-2-yl)amino)-[2,3′-bipyridin]-6′-yl)acetamide] | 0.042 nM | 0.676 nM | 4080 nM | 6028 fold
CC(=O)Nc1cc(Nc2cc(C#N)cc(S(C)(=O)=O)n2)c(-c2ccc(C(C)(C)O)cn2)cn1 [Example H14, N-(4′-((4-cyano-6-(methylsulfonyl)pyridin-2-yl)amino)-5-(2-hydroxypropan-2-yl)-[2,3′-bipyridin]-6′-yl)acetamide] | 0.034 nM | 0.727 nM | > 10000 nM | >13755 fold
CC(=O)Nc1cc(Nc2cc(N3CCC(O)C3)cc(S(C)(=O)=O)c2)c(-c2ccc(C(C)(C)O)cn2)cn1 (stereo not shown) [Example H17, N-(5-(2-hydroxypropan-2-yl)-4′-((3-(3-hydroxypyrrolidin-1-yl)-5-(methylsulfonyl)phenyl)amino)-[2,3′-bipyridin]-6′-yl)acetamide] | 0.034 nM | 67 nM | > 10000 nM | >149 fold
CC(=O)Nc1cc(Nc2cc(OC(F)(F)F)cc(S(C)(=O)=O)c2)c(-c2ccc(C(C)(C)O)cn2)cn1 [Example H18, N-(5-(2-hydroxypropan-2-yl)-4′-((3-(methylsulfonyl)-5-(trifluoromethoxy)phenyl)amino)-[2,3′-bipyridin]-6′-yl)acetamide] | 0.032 nM | 5.54 nM | > 10000 nM | >1805 fold
CC(=O)Nc1cc(Nc2cc(C#N)cc(S(C)(=O)=O)c2)c(-c2ccc(C(C)(C)O)cn2)cn1 [Example H20, N-(4′-((3-cyano-5-(methylsulfonyl)phenyl)amino)-5-(2-hydroxypropan-2-yl)-[2,3′-bipyridin]-6′-yl)acetamide] | 0.046 nM | 35.2 nM | > 10000 nM | >284 fold
CC(=O)Nc1cc(Nc2cc(OCC3CC3)cc(S(C)(=O)=O)c2)c(-c2ccc(C(C)(C)O)cn2)cn1 [Example H22, N-(4′-((3-(cyclopropylmethoxy)-5-(methylsulfonyl)phenyl)amino)-5-(2-hydroxypropan-2-yl)-[2,3′-bipyridin]-6′-yl)acetamide] | 0.038 nM | 2.76 nM | > 10000 nM | >3623 fold
CC(=O)Nc1cc(Nc2cc(OC3CC3)cc(S(C)(=O)=O)c2)c(-c2ccc(C(C)(C)O)cn2)cn1 [Example H23, N-(4′-((3-cyclopropoxy-5-(methylsulfonyl)phenyl)amino)-5-(2-hydroxypropan-2-yl)-[2,3′-bipyridin]-6′-yl)acetamide] | 0.034 nM | 5.7 nM | > 10000 nM | >1754 fold
CC(=O)Nc1cc(Nc2cc(OC(C)C)cc(S(C)(=O)=O)c2)c(-c2ccc(C(C)(C)O)cn2)cn1 [Example H24, N-(5-(2-hydroxypropan-2-yl)-4′-((3-isopropoxy-5-(methylsulfonyl)phenyl)amino)-[2,3′-bipyridin]-6′-yl)acetamide] | 0.034 nM | 5.39 nM | > 10000 nM | >1855 fold
CC(=O)Nc1cc(Nc2cc(C(F)F)cc(S(C)(=O)=O)c2)c(-c2ccc(C(C)(C)O)cn2)cn1 [Example H25, N-(4′-((3-(difluoromethyl)-5-(methylsulfonyl)phenyl)amino)-5-(2-hydroxypropan-2-yl)-[2,3′-bipyridin]-6′-yl)acetamide] | 0.038 nM | 7.53 nM | > 10000 nM | >1328 fold
CC(=O)Nc1cc(Nc2cc(OCC(C)O)cc(S(C)(=O)=O)n2)c(-c2ccc(C(C)(C)O)cn2)cn1 (stereo not shown) [Example H26, N-(5-(2-hydroxypropan-2-yl)-4′-((4-(2-hydroxypropoxy)-6-(methylsulfonyl)pyridin-2-yl)amino)-[2,3′-bipyridin]-6′-yl)acetamide] | 0.039 nM | 11.7 nM | > 10000 nM | >854 fold
CC(=O)Nc1cc(Nc2cc(O[C@H]3C[C@@H](O)C3)cc(S(C)(=O)=O)n2)c(-c2ccc(C(C)(C)O)cn2)cn1 [Example H28, N-(4′-((4-(cis-3-hydroxycyclobutoxy)-6-(methylsulfonyl)pyridin-2-yl)amino)-5-(2-hydroxypropan-2-yl)-[2,3′-bipyridin]-6′-yl)acetamide] | 0.03 nM | 29.2 nM | > 10000 nM | >342 fold
COC1CC(Oc2cc(Nc3cc(NC(C)=O)ncc3-c3ccc(C(C)(C)O)cn3)nc(S(C)(=O)=O)c2)C1 (stereo not shown) [Example H29, N-(5-(2-hydroxypropan-2-yl)-4′-((4-(3-methoxycyclobutoxy)-6-(methylsulfonyl)pyridin-2-yl)amino)-[2,3′-bipyridin]-6′-yl)acetamide] | 0.022 nM | 1.77 nM | 8490 nM | 4797 fold
CC(=O)Nc1cc(Nc2cc(OC3CCC3)cc(S(C)(=O)=O)n2)c(-c2ccc(C(C)(C)O)cn2)cn1 [Example H31, N-(4′-((4-cyclobutoxy-6-(methylsulfonyl)pyridin-2-yl)amino)-5-(2-hydroxypropan-2-yl)-[2,3′-bipyridin]-6′-yl)acetamide] | 0.023 nM | 0.935 nM | > 10000 nM | >10695 fold

Continued, in another order:

IC50 [1] | IC50 [2] | IC50 [3] | Structure (SMILES) | Selectivity fold (TYK2/JAK2) [2]
0.029 nM | 4.89 nM | > 10000 nM | COCCOc1cc(Nc2cc(NC(C)=O)ncc2-c2ccc(C(C)(C)O)cn2)cc(S(C)(=O)=O)c1 [Example H15, N-(5-(2-hydroxypropan-2-yl)-4′-((3-(2-methoxyethoxy)-5-(methylsulfonyl)phenyl)amino)-[2,3′-bipyridin]-6′-yl)acetamide] | >2044 fold
0.028 nM | 7.51 nM | > 10000 nM | COCc1cc(Nc2cc(NC(C)=O)ncc2-c2ccc(C(C)(C)O)cn2)cc(S(C)(=O)=O)c1 [Example H16, N-(5-(2-hydroxypropan-2-yl)-4′-((3-(methoxymethyl)-5-(methylsulfonyl)phenyl)amino)-[2,3′-bipyridin]-6′-yl)acetamide] | >1331 fold
0.028 nM | 3.2 nM | > 10000 nM | CC(=O)Nc1cc(Nc2cc(F)cc(S(C)(=O)=O)c2)c(-c2ccc(C(C)(C)O)cn2)cn1 [Example H19, N-(4′-((3-fluoro-5-(methylsulfonyl)phenyl)amino)-5-(2-hydroxypropan-2-yl)-[2,3′-bipyridin]-6′-yl)acetamide] | >3125 fold
0.024 nM | 2.24 nM | > 10000 nM | CC(=O)Nc1cc(Nc2cc(C)cc(S(C)(=O)=O)c2)c(-c2ccc(C(C)(C)O)cn2)cn1 [Example H21, N-(5-(2-hydroxypropan-2-yl)-4′-((3-methyl-5-(methylsulfonyl)phenyl)amino)-[2,3′-bipyridin]-6′-yl)acetamide] | >4464 fold
0.031 nM | 2.72 nM | > 10000 nM | CC(=O)Nc1cc(Nc2cc(OC3COC3)cc(S(C)(=O)=O)n2)c(-c2ccc(C(C)(C)O)cn2)cn1 [Example H27, N-(5-(2-hydroxypropan-2-yl)-4′-((6-(methylsulfonyl)-4-(oxetan-3-yloxy)pyridin-2-yl)amino)-[2,3′-bipyridin]-6′-yl)acetamide] | >3676 fold
0.023 nM | 0.972 nM | > 10000 nM | CC(=O)Nc1cc(Nc2cc(OCC3CC3)cc(S(C)(=O)=O)n2)c(-c2ccc(C(C)(C)O)cn2)cn1 [Example H30, N-(4′-((4-(cyclopropylmethoxy)-6-(methylsulfonyl)pyridin-2-yl)amino)-5-(2-hydroxypropan-2-yl)-[2,3′-bipyridin]-6′-yl)acetamide] | >10288 fold
0.023 nM | 0.447 nM | > 10000 nM | CC(=O)Nc1cc(Nc2nc(S(C)(=O)=O)ccc2C)c(-c2ccc(C(C)(C)O)cn2)cn1 [Example H32, N-(5-(2-hydroxypropan-2-yl)-4′-((3-methyl-6-(methylsulfonyl)pyridin-2-yl)amino)-[2,3′-bipyridin]-6′-yl)acetamide] | >22371 fold
0.019 nM | 0.777 nM | > 10000 nM | CCOc1cc(Nc2cc(NC(C)=O)ncc2-c2ccc(C(C)(C)O)cn2)nc(S(C)(=O)=O)c1 [Example H33, N-(4′-((4-ethoxy-6-(methylsulfonyl)pyridin-2-yl)amino)-5-(2-hydroxypropan-2-yl)-[2,3′-bipyridin]-6′-yl)acetamide] | >22371 fold
0.023 nM | 1.12 nM | > 10000 nM | CC(=O)Nc1cc(Nc2ccc(F)c(S(C)(=O)=O)n2)c(-c2ccc(C(C)(C)O)cn2)cn1 [Example H34, N-(4′-((5-fluoro-6-(methylsulfonyl)pyridin-2-yl)amino)-5-(2-hydroxypropan-2-yl)-[2,3′-bipyridin]-6′-yl)acetamide] | >8928 fold
